Measurements reported in patent US12459902B2, “Crystalline forms of 4-(7-hydroxy-2-isopropyl-4-oxo-4H-quinazolin-3-yl)-benzonitrile and formulations thereof” (priority 2020, dated 2025).
In brackets after ≈: the same amount, converted by molar mass.

Tests used:
[1] = Water uptake on exposure to moisture (hygroscopicity); format: physicochemical; conditions: for maximum water uptake: up to 95% RH at 25° C.
[2] = format: physicochemical
[3] = Solubility in water; conditions: water at 25° C.

CC(C)c1nc2cc(O)ccc2c(=O)n1-c1ccc(C#N)cc1 [crystal form Q, 4-(7-Hydroxy-2-isopropyl-4-oxo-4H-quinazolin-3-yl)-benzonitrile]
hygroscopicity ([1]; 25° C.): non hygroscopic
maximum water uptake [1]: less than 0.1%
conversion of equimolar suspension of crystal form M and crystal form Q ([2]; 22° C., 30° C. and 35° C., isopropylacetate, dichloromethane, ethanol or water, 7 days): converted after 7 days completely into crystal form M

CC(C)c1nc2cc(O)ccc2c(=O)n1-c1ccc(C#N)cc1 [crystal form M, 4-(7-Hydroxy-2-isopropyl-4-oxo-4H-quinazolin-3-yl)-benzonitrile]
hygroscopicity ([1]; 25° C.): non hygroscopic
maximum water uptake [1]: less than 0.1%
thermodynamic stability relative to crystal form B ([2]; temperature range from 20° C. to 35° C.): thermodynamically more stable than crystal form B
thermodynamic stability relative to crystal form Q ([2]; temperature range from 22° C. to 35° C.): thermodynamically more stable than crystal form Q
thermodynamic stability relative to crystal form E ([2]; temperature range from 30° C. to 45° C.): thermodynamically more stable than crystal form E
solubility in water [3]: 40 µg/mL (≈ 131 µM)

CC(C)c1nc2cc(O)ccc2c(=O)n1-c1ccc(C#N)cc1 [crystal form B, 4-(7-Hydroxy-2-isopropyl-4-oxo-4H-quinazolin-3-yl)-benzonitrile]
conversion of equimolar suspension of crystal form B and crystal form M ([2]; 20° C., 30° C. and 35° C., isopropylacetate, dichloromethane, ethanol or water, 7 days): converted after 7 days almost completely into crystal form M

CC(C)c1nc2cc(O)ccc2c(=O)n1-c1ccc(C#N)cc1 [Hydrate HB, 4-(7-Hydroxy-2-isopropyl-4-oxo-4H-quinazolin-3-yl)-benzonitrile]
additional water uptake above 70% RH ([1]; above 70% RH, at 95% RH, 25° C.): about 2.5%
water uptake up to 70% RH ([1]; up to 70% RH at 25° C.): slight uptake of water

CC(C)c1nc2cc(O)ccc2c(=O)n1-c1ccc(C#N)cc1 [crystal form E, 4-(7-Hydroxy-2-isopropyl-4-oxo-4H-quinazolin-3-yl)-benzonitrile]
conversion of equimolar suspension of crystal form M and crystal form E ([2]; 30° C., 35° C. and 45° C., isopropylacetate, dichloromethane, ethanol or water, 7 days): converted after 7 days completely into Modification M

CC(C)c1nc2cc(O)ccc2c(=O)n1-c1ccc(C#N)cc1 [crystal form K′, 4-(7-Hydroxy-2-isopropyl-4-oxo-4H-quinazolin-3-yl)-benzonitrile]
hygroscopicity ([1]; 25° C.): non-hygroscopic
maximum water uptake [1]: less than 0.2%
